In this assay the target is T1, 5-LO (Homo sapiens, UniProt P09917).
T1 construct: incubating a test compound with heparinised human blood, prior to challenge with the calcium ionophore A23187; endogenous in cells; host or cells: heparinised human whole blood (leukocytes)
T1 sequence (P09917 1-674): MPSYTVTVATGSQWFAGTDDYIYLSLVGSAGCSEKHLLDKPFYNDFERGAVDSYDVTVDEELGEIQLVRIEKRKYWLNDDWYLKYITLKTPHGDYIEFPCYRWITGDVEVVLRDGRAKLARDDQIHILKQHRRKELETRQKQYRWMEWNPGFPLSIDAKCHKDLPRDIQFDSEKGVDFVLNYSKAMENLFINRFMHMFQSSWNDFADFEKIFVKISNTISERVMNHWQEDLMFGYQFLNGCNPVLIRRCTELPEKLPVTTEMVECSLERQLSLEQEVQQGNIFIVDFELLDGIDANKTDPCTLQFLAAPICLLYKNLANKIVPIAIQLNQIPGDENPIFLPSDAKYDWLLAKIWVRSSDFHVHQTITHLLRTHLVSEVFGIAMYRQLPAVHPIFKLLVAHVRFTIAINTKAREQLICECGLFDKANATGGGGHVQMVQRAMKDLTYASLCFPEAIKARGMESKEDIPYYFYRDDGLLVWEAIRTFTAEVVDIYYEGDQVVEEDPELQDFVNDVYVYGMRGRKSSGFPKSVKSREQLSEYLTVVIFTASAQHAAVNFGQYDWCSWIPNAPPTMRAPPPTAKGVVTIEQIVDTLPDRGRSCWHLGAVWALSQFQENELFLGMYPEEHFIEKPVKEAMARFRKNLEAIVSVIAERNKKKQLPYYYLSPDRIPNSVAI
Kind of assay: heparinised human blood challenged with calcium ionophore A23187, radioimmunoassay of LTB4 (test b). Conditions: individual compounds, read-out: IC50 against LTB4. It is filed as cell-based. The method, then: As stated previously, the compounds of the formula I are inhibitors of the enzyme 5-LO. […] This test provides a measure of the intrinsic inhibitory properties against soluble 5-LO in an extracellular environment. • b) An in vitro assay system involving incubating a test compound with heparinised human blood, prior to challenge with the calcium ionophore A23187 and then indirectly measuring the inhibitory effects on 5-LO by assaying the amount of LTB4 using the specific radioimmunoassay described by Carey and Forder (F. Carey and R.A. Forder, Brit. […] The effects of a test compound on the enzyme cyclooxygenase (which is involved in the alternative metabolic pathway for arachidonic acid and gives rise to prostaglandins, thromboxanes and related metabolites) may be measured at the same time using the specific radioimmunoassay for thromboxane B2(TxB2) described by Carey and Forder (see above). […] It permits the selectivity of the inhibitory effect on 5-LO or cyclooxygenase to be assessed. • c) An ex vivo assay system, which is a variation of test b) above, involving administration of a test compound (usually orally as the suspension produced when a solution of the test compound in dimethylsulphoxide is added to carboxymethylcellulose), blood collection, heparinisation, challenge with A23187 and radioimmunoassay of LTB4 and TxB2. […]

Usually IC50 stands for the point on the concentration scale where inhibition reaches its midpoint. For the compound `C=CCO[C@@]1(c2cc(F)cc(Sc3ccc4ccccc4c3)c2)CCC[C@@H]1OC` (racemic) [Example 2, (1RS,2SR)-1-allyloxy-1-[5-fluoro-3-(naphth-2-ylthio)phenyl]-2-methoxycyclopentane], the IC50 is about 200 nM.

Turning to `CO[C@H]1CCC[C@@]1(OC)c1cc(F)cc(Sc2ccc3ccccc3c2)c1` (racemic) [Example 1, (1RS,2SR)-1-[5-fluoro-3-(naphth-2-ylthio)phenyl]-1,2-dimethoxycyclopentane], the IC50 is about 200 nM.

The values above are taken from patent EP0409414B1, “Diaryl ether cycloalkanes” (IMPERIAL CHEMICAL INDUSTRIES PLC, priority 1989, dated 1991).
